Patent US9611256B2, “Alkyne-, azide- and triazole-containing flavonoids as modulators for multidrug resistance in cancers” (The Hong Kong Polytechnic University, priority 2012, dated 2017)

Experiments:
in vitro = conditions: mouse
BCRP = target: T1, BCRP (Homo sapiens, UniProt Q9UNQ0); assay: Reversal of BCRP-mediated topotecan resistance in MCF7-MX100 cells (cell proliferation assay); conditions: for % of reversion of sensitivity of MCF7-MX100 towards topotecan: triazole dimers at 1.0 μM; for Topotecan resistance of MCF7-MX100 Therapeutic index: (IC50 towards L929 or Raw264.7)/(EC50 for reversing drug resistance)
T1 sequence (Q9UNQ0 1-655): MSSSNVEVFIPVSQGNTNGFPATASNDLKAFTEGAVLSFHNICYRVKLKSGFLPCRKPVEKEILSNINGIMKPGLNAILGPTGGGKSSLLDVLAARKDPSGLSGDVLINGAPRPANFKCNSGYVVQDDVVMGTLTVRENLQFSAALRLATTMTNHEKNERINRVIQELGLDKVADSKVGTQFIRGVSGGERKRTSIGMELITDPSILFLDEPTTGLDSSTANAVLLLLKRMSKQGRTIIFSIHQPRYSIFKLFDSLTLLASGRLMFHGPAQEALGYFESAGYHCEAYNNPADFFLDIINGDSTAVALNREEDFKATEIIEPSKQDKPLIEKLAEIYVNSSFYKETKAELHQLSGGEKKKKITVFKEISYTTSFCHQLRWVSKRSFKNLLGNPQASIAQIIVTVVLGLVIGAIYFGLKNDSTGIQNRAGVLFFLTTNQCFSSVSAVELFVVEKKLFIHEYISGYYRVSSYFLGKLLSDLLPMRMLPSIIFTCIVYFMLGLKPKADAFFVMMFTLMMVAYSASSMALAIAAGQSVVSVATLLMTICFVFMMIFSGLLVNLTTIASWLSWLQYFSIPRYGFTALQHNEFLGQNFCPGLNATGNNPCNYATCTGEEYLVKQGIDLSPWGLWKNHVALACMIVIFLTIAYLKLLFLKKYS

[1] = test system: P-gp, MRP1 and BCRP transporters; assay: Selectivity for ABC transporters, determined from % of reversion (Tables 1 and 2); format: cell-based, human; conditions: determined from % of reversion in Table 1 (>80% strongly, 79-50% moderately selective)
Text: Generally, the triazole dimers library can be divided into mono-selective, dual-selective and multi-selective ABC transporter modulators. Table 2 summarizes the selectivity of different active triazole dimers and some monomeric azides for the ABC transporters. […] From the study, it seems that the simple monomeric azides could be a highly BCRP-selective inhibitor. […] It is possible that differently selective (mono-, dual- and multi-) inhibitors of drug transporters could be potentially useful tools for investigation of complicated drug-resistance phenotypes and eventually, for treatment of drug-resistant cancers caused by overexpression of ABC transporters.
The selectivity of active triazole compounds for various ABC transporters was determined from the Table 1. It would be considered as strongly selective if it causes >80% of reversion. It would be considered as moderately selective if it results in 79-50% of reversion. Overall, the active triazole compounds can be divided into mono-, dual- and multi-selective for P-gp, MRP1 and BCRP transporters.

Row | Structure (SMILES) | IC50 at 5 days (in vitro) | Selectivity for ABC transporters (P-gp, MRP1, BCRP) [1] | % of reversion of sensitivity of MCF7-MX100 towards topotecan (BCRP) | Topotecan resistance of MCF7-MX100 Therapeutic index (BCRP)
1 | O=c1cc(-c2ccc(OCCOCCn3cc(CCCOc4ccc(-c5cc(=O)c6ccc(F)cc6o5)cc4)nn3)cc2)oc2ccccc12 [Ac3Az1, 7-Fluoro-2-(4-(3-(1-(2-(2-(4-(4-oxo-4H-chromen-2-yl)phenoxy)ethoxy)ethyl)-1H-1,2,3-triazol-4-yl)propoxy)phenyl)-4H-chromen-4-one] | > 100 µM |  | about 53.3% | 
2 | COCOc1cc(OCc2ccccc2)c2c(=O)cc(-c3ccc(OCCCc4cn(CCOCCOc5ccc(-c6cc(=O)c7ccccc7o6)cc5)nn4)cc3)oc2c1 [Ac4Az1, 5-(Benzyloxy)-7-(methoxymethoxy)-2-(4-(3-(1-(2-(2-(4-(4-oxo-4H-chromen-2-yl)phenoxy)ethoxy)ethyl)-1H-1,2,3-triazol-4-yl)propoxy)phenyl)-4H-chromen-4-one] | < 12.1 µM |  |  | 
3 | Cc1ccc2oc(-c3ccc(OCCCCc4cn(CCOCCOCCOc5ccc(-c6cc(=O)c7cc(C)ccc7o6)cc5)nn4)cc3)cc(=O)c2c1 [Ac5Az3, 6-Methyl-2-(4-(2-(2-(2-(4-(4-(4-(6-methyl-4-oxo-4H-chromen-2-yl)phenoxy)butyl)-1H-1,2,3-triazol-1-yl)ethoxy)ethoxy)ethoxy)phenyl)-4H-chromen-4-one] |  | P-gp and MRP1-dual-selectivity |  | 
4 | Cc1ccc2oc(-c3ccc(OCCCCc4cn(CCOCCOCCOc5ccc(-c6oc7ccccc7c(=O)c6O)cc5)nn4)cc3)cc(=O)c2c1 [Ac5Az5OH, 3-Hydroxy-2-(4-(2-(2-(2-(4-(4-(4-(6-methyl-4-oxo-4H-chromen-2-yl)phenoxy)butyl)-1H-1,2,3-triazol-1-yl)ethoxy)ethoxy)ethoxy)phenyl)-4H-chromen-4-one] | < 12.1 µM |  |  | 
5 | Cc1ccc2oc(-c3ccc(OCCCCc4cn(CCOCCOc5ccc(-c6oc7ccccc7c(=O)c6OCc6ccccc6)cc5)nn4)cc3)cc(=O)c2c1 [Ac5Az10, 3-(Benzyloxy)-2-(4-(2-(2-(4-(4-(4-(6-methyl-4-oxo-4H-chromen-2-yl)phenoxy)butyl)-1H-1,2,3-triazol-1-yl)ethoxy)ethoxy)phenyl)-4H-chromen-4-one] | > 100 µM | mono-BCRP selectivity | about 80.0% | >13333.3
6 | Cc1ccc2oc(-c3ccc(OCCCCc4cn(CCN(CCOc5ccc6c(=O)cc(-c7ccccc7)oc6c5)Cc5ccccc5)nn4)cc3)cc(=O)c2c1 [Ac5Az15, 2-(4-(4-(1-(2-(Benzyl(2-((4-oxo-2-phenyl-4H-chromen-7-yl)oxy)ethyl)amino)ethyl)-1H-1,2,3-triazol-4-yl)butoxy)phenyl)-6-methyl-4H-chromen-4-one] |  | P-gp and MRP1-dual-selectivity |  | 
7 | Cc1ccc2oc(-c3ccc(OCCCCc4cn(CCOCCOc5ccc(-c6oc7ccccc7c(=O)c6O)cc5)nn4)cc3)cc(=O)c2c1 [Ac5Az100H, 3-Hydroxy-2-(4-(2-(2-(4-(4-(4-(6-methyl-4-oxo-4H-chromen-2-yl)phenoxy)butyl)-1H-1,2,3-triazol-1-yl)ethoxy)ethoxy)phenyl)-4H-chromen-4-one] | < 12.1 µM |  |  | 
8 | O=c1[nH]c(-c2ccc(OCCCc3cn(CCOCCOc4ccc(-c5cc(=O)c6ccccc6o5)cc4)nn3)cc2)nc2ccccc12 [Ac11Az1, 2-(4-(3-(1-(2-(2-(4-(4-Oxo-4H-chromen-2-yl)phenoxy)ethoxy)ethyl)-1H-1,2,3-triazol-4-yl)propoxy)phenyl)quinazolin-4(3H)-one] | > 100 µM | mono-BCRP selectivity |  | >3225.8
9 | O=c1[nH]c(-c2ccc(OCCCc3cn(CCOCCOCCOc4ccc(-c5cc(=O)c6ccccc6o5)cc4)nn3)cc2)nc2ccccc12 [Ac11Az2, 2-(4-(3-(1-(2-(2-(2-(4-(4-oxo-4H-chromen-2-yl)phenoxy)ethoxy)ethoxy)ethyl)-1H-1,2,3-triazol-4-yl)propoxy)phenyl)quinazolin-4(3H)-one] | < 12.1 µM |  |  | 
10 | O=c1cc(-c2ccccc2)oc2cc(OCCCCc3cn(CCOCCOCCOc4ccc(-c5oc6ccccc6c(=O)c5OCc5ccccc5)cc4)nn3)ccc12 [Ac12Az5, 3-(Benzyloxy)-2-(4-(2-(2-(2-(4-(4-((4-oxo-2-phenyl-4H-chromen-7-yl)oxy)butyl)-1H-1,2,3-triazol-1-yl)ethoxy)ethoxy)ethoxy)phenyl)-4H-chromen-4-one] |  | multi-selectivity towards P-gp, MRP1 and BCRP transporters |  | 
11 | C#CCOCCOc1ccc2c(=O)cc(-c3ccccc3)oc2c1 [Ac13, 2-Phenyl-7-(2-(prop-2-yn-1-yloxy)ethoxy)-4H-chromen-4-one] | 32.2 µM |  |  | 
12 | O=c1cc(-c2ccc(OCCOCCOCCn3cc(COCCOc4ccc5c(=O)cc(-c6ccccc6)oc5c4)nn3)cc2)oc2ccccc12 [Ac13Az2, 7-(2-((1-(2-(2-(2-(4-(4-Oxo-4H-chromen-2-yl)phenoxy)ethoxy)ethoxy)ethyl)-1H-1,2,3-triazol-4-yl)methoxy)ethoxy)-2-phenyl-4H-chromen-4-one] | < 12.1 µM |  |  | 
13 | O=c1cc(-c2ccccc2)oc2cc(OCCOCCn3cc(COCCOc4ccc5c(=O)cc(-c6ccccc6)oc5c4)nn3)ccc12 [Ac13Az11, 7-(2-((1-(2-(2-((4-Oxo-2-phenyl-4H-chromen-7-yl)oxy)ethoxy)ethyl)-1H-1,2,3-triazol-4-yl)methoxy)ethoxy)-2-phenyl-4H-chromen-4-one] |  | mono-BCRP selectivity |  | 
14 | O=c1cc(-c2ccccc2)oc2cc(OCCOCCOCCn3cc(COCCOc4ccc5c(=O)cc(-c6ccccc6)oc5c4)nn3)ccc12 [Ac13Az12, 7-(2-((1-(2-(2-(2-((4-Oxo-2-phenyl-4H-chromen-7-yl)oxy)ethoxy)ethoxy)ethyl)-1H-1,2,3-triazol-4-yl)methoxy)ethoxy)-2-phenyl-4H-chromen-4-one] | < 12.1 µM | mono-BCRP selectivity |  | 

The next lines start with results.

Row | IC50 at 5 days (in vitro) | Selectivity for ABC transporters (P-gp, MRP1, BCRP) [1] | Structure (SMILES) | % of reversion of sensitivity of MCF7-MX100 towards topotecan (BCRP) | Topotecan resistance of MCF7-MX100 Therapeutic index (BCRP)
15 |  | mono-BCRP selectivity | O=c1cc(-c2ccccc2)oc2cc(OCCOCCOCCn3cc(CN(Cc4ccccc4)Cc4cn(CCOCCOCCOc5ccc6c(=O)cc(-c7ccccc7)oc6c5)nn4)nn3)ccc12 [Ac15Az12, 7,7′-(((((((4,4′-((Benzylazanediyl)bis(methylene))bis(1H-1,2,3-triazole-4,1-diyl))bis(ethane-2,1-diyl))bis(oxy))bis(ethane-2,1-diyl))bis(oxy))bis(ethane-2,1-diyl))bis(oxy))bis(2-phenyl-4H-chromen-4-one)] |  | 
16 | 58.2 µM |  | C#CCN(CCOc1ccc2c(=O)cc(-c3ccccc3)oc2c1)Cc1ccccc1 [Ac16, 7-(2-(Benzyl(prop-2-yn-1-yl)amino)ethoxy)-2-phenyl-4H-chromen-4-one] |  | 
17 | > 100 µM |  | O=c1cc(-c2ccc(OCCOCCn3cc(CN(CCOc4ccc5c(=O)cc(-c6ccccc6)oc5c4)Cc4ccccc4)nn3)cc2)oc2ccccc12 [Ac16Az1, 7-(2-(Benzyl((1-(2-(2-(4-(4-oxo-4H-chromen-2-yl)phenoxy)ethoxy)ethyl)-1H-1,2,3-triazol-4-yl)methyl)amino)ethoxy)-2-phenyl-4H-chromen-4-one] | 80.0% | 
18 | > 100 µM |  | O=c1cc(-c2ccc(OCCOCCOCCn3cc(CN(CCOc4ccc5c(=O)cc(-c6ccccc6)oc5c4)Cc4ccccc4)nn3)cc2)oc2ccccc12 [Ac16Az2, 7-(2-(Benzyl((1-(2-(2-(2-(4-(4-oxo-4H-chromen-2-yl)phenoxy)ethoxy)ethoxy)ethyl)-1H-1,2,3-triazol-4-yl)methyl)amino)ethoxy)-2-phenyl-4H-chromen-4-one] |  | 
19 |  | mono-BCRP selectivity | [N-]=[N+]=NCCOCCOCCOc1ccc(-c2oc3ccccc3c(=O)c2OCc2ccccc2)cc1 [Az5, 2-(4-(2-(2-(2-Azidoethoxy)ethoxy)ethoxy)phenyl)-3-(benzyloxy)-4H-chromen-4-one] |  | 
20 |  | mono-BCRP selectivity | [N-]=[N+]=NCCOCCOCCOc1ccc(-c2cc(=O)c3cc(Cl)cc(Cl)c3o2)cc1 [Az6, 2-(4-(2-(2-(2-Azidoethoxy)ethoxy)ethoxy)phenyl)-6,8-dichloro-4H-chromen-4-one] |  | 
21 | 67.5 µM | mono-BCRP selectivity | COC(=O)c1cccc(COc2c(-c3ccc(OCCOCCN=[N+]=[N-])cc3)oc3ccccc3c2=O)c1 [Az8, Methyl 3-(((2-(4-(2-(2-azidoethoxy)ethoxy)phenyl)-4-oxo-4H-chromen-3-yl)oxy)methyl)benzoate] |  | 562.5
